In US20240207247A1, “METHODS FOR THE COMBINED ADMINISTRATION OF DEUTETRABENAZINE AND A CYP2D6 INHIBITOR” (Neurocrine Biosciences, Inc., priority 2021, published 2024):

Columns and labels:
[1] = paroxetine 20 mg daily for 8 days, then single 22.5 mg dose of deutetrabenazine; 24 healthy subjects; cited from earlier work
[2] = Phase 1 open-label 2-sequence crossover single-dose pharmacokinetic study of deutetrabenazine metabolites; type: in vivo, human (healthy male and female subjects); conditions: share of total DHTBZ exposure after single dose deutetrabenazine 24 mg, healthy subjects
Description: A phase 1, open-label, 2-sequence crossover study was conducted to evaluate the HTBZ PK profile following administration of valbenazine (40 mg) or deutetrabenazine (24 mg) to a total of 18 healthy male and female subjects. Subjects received a single dose of valbenazine 40 mg on Day 1 and a single dose of deutetrabenazine 24 mg on Day 16; or received a single dose of deutetrabenazine 24 mg on Day 1 and a single dose of valbenazine 40 mg on Day 16. Valbenazine 40 mg was administered as one 40 mg capsule and deutetrabenazine 24 mg was administered as two 12 mg tablets. Study drug was administered at approximately 0800 hours, approximately 30 minutes after the start of a standard breakfast. […] PK parameters were determined using non-compartmental analysis with Phoenix WinNonlin 8.3 software. The in vitro pharmacology of the deuterated HTBZ metabolites was assessed using competitive radioligand binding assays.

SMILES	increase in mean half-life in the presence of paroxetine [1]	AUC (% of Total) [2] [%]
COc1cc2c(cc1OC)[C@@H]1C[C@H](O)[C@@H](CC(C)C)CN1CC2 [α-DHTBZ]	approximately 1.5 fold	
[2H]C([2H])([2H])Oc1cc2c(cc1OC([2H])([2H])[2H])[C@H]1C[C@@H](O)[C@H](CC(C)C)CN1CC2 [[+]-α-DHTBZ]		2
[2H]C([2H])([2H])Oc1cc2c(cc1OC([2H])([2H])[2H])[C@@H]1C[C@H](O)[C@@H](CC(C)C)CN1CC2 [[−]-α-DHTBZ, (−)-α-3-isobutyl-9,10-di(methoxy-d3)-1,3,4,6,7,11b-hexahydro-2H-pyrido[2,1-a]isoquinolin-2-ol]		66
[2H]C([2H])([2H])Oc1cc2c(cc1OC([2H])([2H])[2H])[C@@H]1C[C@@H](O)[C@@H](CC(C)C)CN1CC2 [[−]-β-DHTBZ, (−) -β-3-isobutyl-9,10-di(methoxy-d3)-1,3,4,6,7,11b-hexahydro-2H-pyrido[2,1-a]isoquinolin-2-ol]		3
[2H]C([2H])([2H])Oc1cc2c(cc1OC([2H])([2H])[2H])[C@H]1C[C@H](O)[C@H](CC(C)C)CN1CC2 [[+]-β-DHTBZ, (+)-β-3-isobutyl-9,10-di(methoxy-d3)-1,3,4,6,7,11b-hexahydro-2H-pyrido[2,1-a]isoquinolin-2-ol]		29
